In series [1] the test system is P. falciparum NF54 gametocytes. Put plainly: Gametocyte toxicity test. In kind it is cell-based, Plasmodium falciparum. The following applies: compound at IC50 concentration, 48 h treatment, then 7 d drug-free. As for the experimental part:
(§1) Three P. falciparum strains were used for compound testing; a strain sensitive to chloroquine (CQ) 3D7, CQ-resistant strain Dd2 and P. falciparum gametocyte producing NF54 strain. The 3D7 and Dd2 strains were used to investigate the effect of the compounds on asexual blood stage replication. They were cultured in RPMI 1640/HEPES medium (Gibco, Thermo Scientific, Waltham, MA, USA) containing 10 µg/mL gentamicin (Gibco Thermo Scientific, Waltham, MA, USA,), 50 µg/mL hypoxanthine (Sigma-Aldrich, St. Louis, MO, USA), 0.5% v/v Albumax II (Gibco, Thermo Scientific, Waltham, MA, USA) and 5% hematocrit. Cultures were maintained at 37 °C using a gas mixture containing 5% CO2, 5% O2 and 90% N2. […] To obtain highly synchronized cultures, parasite cultures consisting mainly of ring stages were centrifuged, the pellet was resuspended in 10 mL of 5% w/v sorbitol/ddH20 and incubated for 10 min at room temperature. After washing the cells with RPMI to remove residual sorbitol, they were again cultivated, as described above. Erythrocyte concentrate and serum samples were obtained from the Department of Transfusion Medicine, University Hospital Aachen, Germany. The serum samples were mixed and pooled and donors were kept anonymous. The work with blood components from humans was approved by the Ethics commission of the RWTH University Hospital (EK 007/13).
P. falciparum NF54 parasites were cultured at high parasitemia to induce gametocyte formation. Once stage II gametocytes appeared, 1 mL of culture was aliquoted in triplicate in a 24-well plate with compounds at the respective IC50 and IC90 concentrations that was determined from Malstat assay. The gametocytes were again cultivated for 9 d with the daily replacement of medium. For the first 48 h of cultivation, the gametocytes were treated with test compounds, and subsequently compound free medium was used. On day 9, blood smears were prepared and stained with Giemsa and the gametocytemia was determined by counting the numbers of gametocytes stages IV and V in a total number of 1000 erythrocytes.
Figure 3 Effect of organosulfur compounds on gametocyte development. Cultures rich in stage II gametocyte were incubated with compounds at IC50 and IC90 concentrations for 2 d, and again cultivated for another 7 d with daily replacement of medium. The numbers of stage IV and V gametocytes were determined from Giemsa smears and normalized to 0.5% v/v DMSO treatment which served as negative control (set to 100%). Epoxomicin (Epoxo) at 60 nM served as positive control.

The test system of the next series is P. falciparum Dd2 strain. Put plainly: Malstat assay, asexual blood stages, CQ-resistant strain Dd2. In kind it is cell-based. The following applies: Plasmodium falciparum, DD2; ring stage parasites, 72 h, Malstat; read-out: IC50 (µM) CQ-Resistant Strain Dd2. As for the experimental part: as §1
(§2) The antiplasmodial effect of the compounds on P. falciparum asexual blood stage development was carried out using the Malstat assay, as described previously. Compounds dissolved in dimethyl sulfoxide (DMSO) were added to 1% ring stage P. falciparum 3D7 and Dd2 cultures (200 µL/well) in a 96-well plate in triplicate at final concentrations ranging from 100 µM to 0.78 µM. […] CQ at concentrations ranging from 500 nM to 4 nM was used as an internal control in the experiments, while parasites treated with 0.5% v/v DMSO served as the negative control. The parasites were cultured with the compounds for 72 h at 37 °C in the presence of the following gas combination: 5% O2, 5% CO2, and 90% N2. Afterwards, 20 µL of the incubated culture was removed and 100 µL of Malstat reagent (0.1% v/v Triton X-100, 1 g of L-lactate, 0.33 g Tris and 33 mg of 3-acetylpyridine adenine dinucleotide in 100 mL of distilled water, pH 9.0) was added in a new 96-well microtiter plate. Next, 20 µL mixture of NBT/Diaphorase (1:1; 1 mg/mL stock each) was added to the Malstat reaction and the parasite lactate dehydrogenase activity was then quantified by measuring the optical densities at 630 nm. IC50 values were then determined from variable-slope sigmoidal dose-response graphs using the GraphPad Prism program version 5 (GraphPad Software Inc., La Jolla, San Diego, CA, USA).

In series [2] the test system is non-infected erythrocytes. Put plainly: Hemolytic assay. The class given is cell-based, human. Conditions: IC50 and IC90 concentrations, 48 h, 37 °C, compared with 0.5% v/v DMSO. As to the method: Since the malaria parasite replicates in the red blood cell, we determined if the compounds have an effect on non-infected erythrocytes using hemolytic assays. To this end, 1 mL of washed uninfected erythrocytes at 5% hematocrit in regular medium was plated in triplicate in a 96-well plate (200 µL/well) in the presence of compounds at IC50 and IC90 concentrations. Erythrocytes treated with 0.15% w/v saponin were used as lysis control and 0.5% v/v DMSO was used as the negative control. Following 48 h of incubation at 37 °C, the plate was centrifuged at 500× g for 2 min and 100 µL of the supernatant was transferred to another plate and the absorbance was measured at 550 nm with a spectrophotometer.
(§3) Figure 4 Hemolytic and cytotoxic effect of compounds. (a) Hemolytic effect of compounds. […] The absorbance of free hemoglobin was measured at OD550 nm in the supernatant and normalized to 0.15% w/v saponin (set to 100%), which served as positive control in the experiments. 0.5% v/v DMSO was used as negative control. (b) Cytotoxicity effect of compounds on Hela cells. The cells were plated in 96-well microtiter plates and cultured overnight at 37 °C. The following day, the old medium was removed and 100 µL of fresh medium containing serially diluted compounds in corresponding wells at final concentrations ranging from 100 µM to 0.8 µM was added and the culture was incubated for 72 h. After incubation, the medium was replaced by 100 µL fresh drug-free medium and 20 µL MTT (5 mg/mL) was added in each well and incubated for 3 h at 37 °C. After 3 h, the MTT preparation was then removed from each well and 100 µL solubilization solution was added. Plates were then placed on a rotator at about 500 rpm at RT until the formazan precipitate was completely resuspended and the OD was measured at 450 nm. The data are representative of three independent experiments.

The subject of a further series is P. falciparum 3D7 strain. As to the kind of experiment: Malstat assay, asexual blood stages, CQ-sensitive strain 3D7. In kind it is cell-based. The following applies: Plasmodium falciparum, 3D7. As for the experimental part: as §1, §2
Series [3] is described as follows: MTT cytotoxicity assay, Hela cells. The class given is cell-based. The following applies: human, Hela cells (human cervical cancer cell line). As for the experimental part:
The MTT [3-(4,5-dimethylthiazol-2-yl)-2,5-diphenyltetrazolium bromide] assay was performed using the human cervical cancer cell (Hela) line and the hematologic malignancy human erythroleukemia (HEL) cell line to determine if the compounds were toxic (loss of viability) against human cells. MTT is taken up by viable cells and converted by mitochondrial dehydrogenases to a violet formazan product that cannot diffuse through cell membranes, and therefore crystallizes in viable cells. The adherent Hela cells were plated in 96-well microtiter plates and cultured at 37 °C overnight. Compounds were added to the cultures in different serial concentrations in triplicate the next day, and the cells were incubated for 72 h. DMSO was used as the negative control at a final concentration of 0.5% v/v, and a concentration of 15% v/v DMSO which is toxic was added as the positive control. After 72 h of drug treatment, medium-containing drug was replaced with 100 µL fresh drug-free medium. Then, 20 µL MTT (5 mg/mL) was added to each well and incubated for 3 h at 37 °C. The medium was subsequently removed and 100 µL solubilization solution (5% w/v SDS, 0.1 M HCl in 100% vol. DMSO) was added and incubated for 30 min under rotation at room temperature to solubilize the formazan crystals.
For both cell lines, the optical density (OD) of the solution was measured at 550 nm. The OD-values of cultures treated with compounds were normalized to the OD-values of 0.5% v/v DMSO control (set to 100% viability for Hela or 1 for HEL cell line). IC50 values were calculated from MTT assays using Graphpad Prism (V9).
as §3

Structures are written as SMILES.

Consider `CCOC(=O)C1=C(c2ccc(C)cc2)N=S(=O)(N2CCCCCC2)c2ccccc21` (stereo not shown) [Compound 16], for which the “reduction of mature gametocyte numbers” value in series [1] is given as “about 50%”. Besides, the IC50 is 4.4 ± 0.59 µM with P. falciparum Dd2 strain and 3.1 ± 0.26 µM in the series with P. falciparum 3D7 strain (ring stage parasites, 72 h, Malstat (plasmodial LDH), read-out: IC50 (µM) CQ-Sensitive Strain 3D7). The hemolytic effect result in series [2] was “no hemolytic effect”. The IC90 with P. falciparum 3D7 strain (90% inhibitory concentration estimated from the IC50) is 27.9 µM. In addition, the viability at 72 h, 50 µM in series [3] (50 µM) was > 60%. For the same compound, the viability at 72 h in series [3] (about 25 µM) is > 90%.

These data come from paper PMC9785921, “Evaluation of Chiral Organosulfur Compounds on Their Activity against the Malaria Parasite Plasmodium falciparum” (Tropical Medicine and Infectious Disease, 2022).
